Test results: PubChem BioAssay (NCI)
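Growth conditions: 96-well plates. Treatment: test compound, 48 hours, 5 concentrations. Analysis: linear interpolation between bracketing concentrations; unreached endpoints set to highest concentration. GI50 is the concentration that inhibits growth by half. The concentration for full growth arrest is given as TGI.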

Legend:
Assay in all cases: NCI anticancer screen, dose series, 48 h
[1] = test system: A549 NSCLC
[2] = test system: HCT-116 colon
[3] = test system: HL-60(TB) leukemia
[4] = test system: HOP-92 NSCLC
[5] = test system: IGROV1 ovarian
[6] = test system: K-562 leukemia
[7] = test system: KM12 colon
[8] = test system: SF-268 CNS
[9] = test system: SF-539 CNS
[10] = test system: HS 578T breast

## O=c1cc(/C=C/c2ccccc2)c2ccc(O/C(=C\c3ccccc3)c3nc4ccccc4c(=O)o3)cc2o1
[1]
  TGI: > 100 µM
[2]
  TGI: 36.5 µM
[3]
  TGI: 45.5 µM
[4]
  TGI: 86.1 µM
[5]
  TGI: > 100 µM
[6]
  TGI: > 100 µM
[7]
  TGI: > 100 µM
[8]
  TGI: 35.8 µM
[9]
  TGI: 63.2 µM

## Cn1c(=O)ccc2cc(C(=O)c3ccccc3)ccc21
[1]
  TGI: > 100 µM
[2]
  TGI: > 100 µM
[3]
  TGI: > 100 µM
[4]
  TGI: > 100 µM
[5]
  TGI: > 100 µM
[6]
  TGI: > 100 µM
[7]
  TGI: > 100 µM
[8]
  TGI: > 100 µM
[9]
  TGI: > 100 µM

## COc1ccc2c(c1)[n+](=O)c(C(=O)C/C(=N\NC(=O)C[N+](C)(C)C)C(=O)Nc1cc(Cl)ccc1Cl)c(C)n2O
[1]
  TGI: > 100 µM
[2]
  TGI: > 100 µM
[3]
  TGI: > 100 µM
[4]
  TGI: > 100 µM
[5]
  TGI: > 100 µM
[6]
  TGI: > 100 µM
[7]
  TGI: > 100 µM
[8]
  TGI: > 100 µM
[9]
  TGI: > 100 µM

## O=CN/C=C\c1cc(O)ccc1O
[1]
  TGI: > 100 µM
[2]
  TGI: 25.2 µM
[3]
  TGI: 47.8 µM
[4]
  TGI: 28 µM
[5]
  TGI: > 58.4 µM
[6]
  TGI: > 100 µM
[7]
  TGI: > 100 µM
[8]
  TGI: > 57.8 µM
[9]
  TGI: > 49.6 µM

## OC1OC2COC(c3ccccc3)OC2C(O)C1O (stereo not given)
[1]
  TGI: > 100 µM
[2]
  TGI: > 100 µM
[3]
  TGI: > 100 µM
[4]
  TGI: > 100 µM
[5]
  TGI: > 100 µM
[6]
  TGI: > 100 µM
[7]
  TGI: > 100 µM
[8]
  TGI: > 100 µM
[9]
  TGI: > 100 µM

## CC(=O)c1ccc(-c2ccc(C(C)=O)s2)s1
[1]
  TGI: > 100 µM
[2]
  TGI: > 100 µM
[3]
  TGI: > 100 µM
[4]
  TGI: > 100 µM
[5]
  TGI: > 100 µM
[6]
  TGI: > 100 µM
[7]
  TGI: > 100 µM
[9]
  TGI: > 100 µM

## COC(=O)/C=C/c1cc(OC)c2c(c1)[C@@H](C(=O)OC)[C@H](c1ccc(OC)c(OC)c1)O2
[1]
  GI50: 11.2 µM
  TGI: > 100 µM
[2]
  GI50: 528 nM
  TGI: > 100 µM
[4]
  GI50: 13.1 µM
  TGI: > 100 µM
[10]
  GI50: 1700 nM
  TGI: > 100 µM
[5]
  GI50: 3840 nM
  TGI: > 100 µM
[7]
  GI50: 703 nM
  TGI: > 100 µM
[8]
  GI50: 2910 nM
  TGI: > 100 µM
[9]
  GI50: 1220 nM
  TGI: > 100 µM

## O=c1c(-c2nc3ccccc3[nH]2)cc2ccccc2n1Cc1cn(Cc2ccc(F)cc2)nn1
[1]
  GI50: 0.116 µM
  TGI: > 100 µM
[2]
  GI50: 44.2 nM
  TGI: 5.56 µM
[4]
  GI50: 0.364 µM
  TGI: 18.2 µM
[10]
  GI50: 54.6 nM
  TGI: 1.18 µM
[5]
  GI50: 221 nM
  TGI: > 100 µM
[6]
  GI50: 60.9 nM
  TGI: > 100 µM
[7]
  GI50: 143 nM
  TGI: > 41.5 µM
[8]
  GI50: 259 nM
  TGI: 57.6 µM
[9]
  GI50: 137 nM
  TGI: 0.636 µM

## C=C1[C@@H]2CCC(C)(C)[C@H]1CCC(=O)[C@@H]2C(=O)OC
[1]
  TGI: > 100 µM
[2]
  TGI: > 100 µM
[3]
  TGI: > 100 µM
[5]
  TGI: > 100 µM
[6]
  TGI: > 100 µM
[8]
  TGI: > 100 µM
[9]
  TGI: > 100 µM

## COc1ccc2c(C(=O)NCCCCCC(=O)O)cc3cc4c(cc3c2c1)OCO4
[1]
  GI50: > 100 µM
  TGI: > 100 µM
[2]
  GI50: > 100000 nM
  TGI: > 100 µM
[4]
  GI50: > 100 µM
  TGI: > 100 µM
[10]
  GI50: > 100000 nM
  TGI: > 100 µM
[6]
  GI50: > 100000 nM
  TGI: > 100 µM
[7]
  GI50: > 100000 nM
  TGI: > 100 µM
[8]
  GI50: 58000 nM
  TGI: > 100 µM
[9]
  GI50: > 100000 nM
  TGI: > 100 µM
